In patent US20020061888A1, “Combination therapy for the prophylaxis and treatment of hyperlipidemic conditions and disorders” (priority 2000, published 2002):

Columns and labels:
[1] = tested on: Male beagle dogs; assay: Fecal bile acid concentration in beagle dogs (enzymatic 3α-hydroxysteroid dehydrogenase assay of fecal extracts); format: in vivo; settings: for FECAL BILE ACID CONCENTRATION: n = 6; for % change in fecal bile acid: Week 2, footnote: vs pretreatment, text b128: vs vehicle
Description: Male beagle dogs (9-10 kg) obtained from Marshall farms were fed a normal chow diet once a day for a two hour interval and given water ad libitum. Prior to initiating treatment, the dogs were weighed and blood samples were drawn from the cephalic vein of each dog following an overnight fast to evaluate pretreatment serum total cholesterol levels at the start of the study. […] All doses were administered in gelatin capsules per os to each dog between 9:00-9:30 a.m. prior to feeding. All animals were fed between 9:30-10:00 a.m. and were allowed two hours to eat, at which time any remaining food was removed. […] Three consecutive 24 hour fecal samples were collected for each group during the last 72 hours of each week and used to measure the concentration of fecal biles acids excreted during that time period.
Fecal samples were collected to determine the fecal bile acid (“FBA”) concentration for each animal. Three consecutive 24 hour fecal samples were collected between 8:00 a.m. and 9:00 a.m. each day, prior to dosing and feeding, during the last 72 hour period of each week. The separate daily collections from each dog were weighed, combined and homogenized with distilled water in a food processor to generate a homogeneous slurry. A 1.4 g sample of fecal homogenate was extracted with 2.6 mL of a solution containing tertiary butanol:distilled water in the ratio of 2:0.6 (final concentration of 50% tertiary butanol v/v distilled water) for 45 minutes in a 37° C. water bath and centrifuged for 13 minutes at 2000 x g. The concentration of bile acids (μmoles/gram homogenate) was determined using a 96-well enzymatic assay system described in van der Meer et al., “t-Butanol Extraction of Feces: A Rapid Procedure For Enzymic Determination Of Fecal Bile Acids”, Cholesterol, Metabolism in Health and Disease: Studies in the Netherlands, edited by Beynen, et al., Ponsen and Looyen, Wageningen, 1985; and Turley et al., “Re-evaluation of the 3 Alpha-Hydroxysteroid Dehydrogenase Assay For Total Bile Acids In Bile”, J. Lipid Research, 19:924-928, 1978.
A 20 μL aliquot of each fecal extract was added to each of two sets of triplicate wells in a 96-well assay plate. A standardized sodium taurocholate solution and a standardized fecal extract solution (previously made from pooled samples and characterized for its bile acid concentration) were also analyzed for assay quality control. A standard curve of five points containing 30-540 nmoles/well was generated by serial dilutions of an initial 20 μL aliquot of 90 mM sodium taurocholate. A 230 μL aliquot of a reaction mixture containing 1M hydrazine hydrate, 0.1 M pyrophosphate and 0.46 mg/ml NAD was added to each well. Subsequently, a 50 μL aliquot of either 3α-hydroxysteroid dehydrogenase (“HSD”) enzyme (0.8 units/mL) or assay buffer (0.1 M sodium pyrophosphate) was then added to one each of the two sets of triplicates. Following 60 minutes of incubation at room temperature, the optical density at 340 nm was measured and the mean of each set of triplicate samples was calculated. The difference in optical density with and without HSD enzyme was used to determine the bile acid concentration (mM) of each sample based on the sodium taurocholate standard curve. The bile acid concentration of the extract (μmoles/gram homogenate), the total weight of the fecal homogenate (grams) and the body weight of the dogs (kg) were used to calculate the corresponding fecal bile acid concentration in μtmoles/kg/day for each animal.
All reagents used for the assay were obtained from Sigma Chemical Co., St. Louis, Mo. (HSD enzyme—catalog # H-1506; NAD—catalog # N1636; sodium taurocholate—catalog # T-4009).

[2] = tested on: Male beagle dogs; assay: Serum total cholesterol in beagle dogs (serum lipid measurements); format: in vivo; settings: pravastatin 16.0 mg/kg/day, Week 3, mean ± SEM, n = 6

CCCCC1(CC)CS(=O)(=O)c2ccc(N(C)C)cc2[C@@H](c2cccc(OCc3ccc(C[N+]45CCN(CC4)CC5)cc3)c2)[C@H]1O.[Cl-] (some centres unmarked) [Compound A-5]
return of fecal bile acid levels to their pretreatment levels after the last day of compound A-5 dosing ([1]; Example 3, 4.0 mg/kg/day compound A-5 for four weeks, alone or with 10 mg/kg/day pravastatin): within one week | FECAL BILE ACID CONCENTRATION ([1]; compound A-5 0.22 mg/kg/day per os, Week 1, mean ± SEM): 89 ± 9^3 μmol/day/kg | % change in fecal bile acid ([1]; compound A-5 0.22 mg/kg/day per os): (270) % | FECAL BILE ACID CONCENTRATION ([1]; compound A-5 0.22 mg/kg/day per os, Week 2, mean ± SEM): 100 ± 11^3 μmol/day/kg | FECAL BILE ACID CONCENTRATION ([1]; compound A-5 0.22 mg/kg/day per os, Week 3, mean ± SEM): 81 ± 7^3 μmol/day/kg | FECAL BILE ACID CONCENTRATION ([1]; compound A-5 0.66 mg/kg/day per os, Week 1, mean ± SEM): 134 ± 19^3 μmol/day/kg | % change in fecal bile acid ([1]; compound A-5 0.66 mg/kg/day per os): (396) % | FECAL BILE ACID CONCENTRATION ([1]; compound A-5 0.66 mg/kg/day per os, Week 2, mean ± SEM): 134 ± 16^3 μmol/day/kg | FECAL BILE ACID CONCENTRATION ([1]; compound A-5 0.66 mg/kg/day per os, Week 3, mean ± SEM): 126 ± 12^3 μmol/day/kg | FECAL BILE ACID CONCENTRATION ([1]; compound A-5 2.0 mg/kg/day per os, Week 1, mean ± SEM): 168 ± 13^3 μmol/day/kg | % change in fecal bile acid ([1]; compound A-5 2.0 mg/kg/day per os): (411) % | FECAL BILE ACID CONCENTRATION ([1]; compound A-5 2.0 mg/kg/day per os, Week 2, mean ± SEM): 138 ± 12^3 μmol/day/kg | FECAL BILE ACID CONCENTRATION ([1]; compound A-5 2.0 mg/kg/day per os, Week 3, mean ± SEM): 164 ± 11^3 μmol/day/kg | FECAL BILE ACID CONCENTRATION ([1]; compound A-5 6.0 mg/kg/day per os, Week 1, mean ± SEM): 190 ± 18^3 μmol/day/kg | % change in fecal bile acid ([1]; compound A-5 6.0 mg/kg/day per os): (674) % | FECAL BILE ACID CONCENTRATION ([1]; compound A-5 6.0 mg/kg/day per os, Week 2, mean ± SEM): 209 ± 27^3 μmol/day/kg | FECAL BILE ACID CONCENTRATION ([1]; compound A-5 6.0 mg/kg/day per os, Week 3, mean ± SEM): 179 ± 16^3 μmol/day/kg | % change in fecal bile acid concentration from Week 0 ([1]; compound A-5 monotherapy 4.0 mg/kg/day, dosed Weeks 5-8, Week 5): (+293)^4% | FECAL BILE ACID CONCENTRATION ([1]; compound A-5 monotherapy 4.0 mg/kg/day, dosed Weeks 5-8, Week 5, mean ± SEM): 106 ± 13^3 μmol/kg/day | % change in fecal bile acid concentration from Week 0 ([1]; compound A-5 monotherapy 4.0 mg/kg/day, dosed Weeks 5-8, Week 6): (+374) % | FECAL BILE ACID CONCENTRATION ([1]; compound A-5 monotherapy 4.0 mg/kg/day, dosed Weeks 5-8, Week 6, mean ± SEM): 128 ± 17^3 μmol/kg/day | % change in fecal bile acid concentration from Week 0 ([1]; compound A-5 monotherapy 4.0 mg/kg/day, dosed Weeks 5-8, Week 7): (+578) % | FECAL BILE ACID CONCENTRATION ([1]; compound A-5 monotherapy 4.0 mg/kg/day, dosed Weeks 5-8, Week 7, mean ± SEM): 183 ± 39^3 μmol/kg/day | FECAL BILE ACID CONCENTRATION ([1]; compound A-5 monotherapy 4.0 mg/kg/day, dosed Weeks 5-8, Week 8, mean ± SEM): 109 ± 23^3 μmol/kg/day | % change in fecal bile acid concentration from Week 0 ([1]; compound A-5 monotherapy group, dosing terminated after Week 8, Week 9): (+48) % | FECAL BILE ACID CONCENTRATION ([1]; compound A-5 monotherapy group, dosing terminated after Week 8, Week 9, mean ± SEM): 40 ± 6 µmol/kg/day | % change in fecal bile acid concentration from Week 0 ([1]; compound A-5 monotherapy group, dosing terminated after Week 8, Week 10): (+59) % | FECAL BILE ACID CONCENTRATION ([1]; compound A-5 monotherapy group, dosing terminated after Week 8, Week 10, mean ± SEM): 43 ± 4 µmol/kg/day

CC[C@H](C)C(=O)O[C@H]1C[C@H](O)C=C2C=C[C@H](C)[C@H](CC[C@@H](O)C[C@@H](O)CC(=O)O)[C@H]21 [pravastatin, Pravastatin]
% change in fecal bile acid concentration from Week 0 ([1]; pravastatin monotherapy 10 mg/kg/day, Week 5): (−54) % | FECAL BILE ACID CONCENTRATION ([1]; pravastatin monotherapy 10 mg/kg/day, Week 5, mean ± SEM): 17 ± 5 µmol/kg/day | % change in fecal bile acid concentration from Week 0 ([1]; pravastatin monotherapy 10 mg/kg/day, Week 6): (−38) % | FECAL BILE ACID CONCENTRATION ([1]; pravastatin monotherapy 10 mg/kg/day, Week 6, mean ± SEM): 23 ± 7 µmol/kg/day | % change in fecal bile acid concentration from Week 0 ([1]; pravastatin monotherapy 10 mg/kg/day, Week 7): (−19) % | FECAL BILE ACID CONCENTRATION ([1]; pravastatin monotherapy 10 mg/kg/day, Week 7, mean ± SEM): 30 ± 6 µmol/kg/day | % change in fecal bile acid concentration from Week 0 ([1]; pravastatin monotherapy 10 mg/kg/day, Week 8): (−30) % | FECAL BILE ACID CONCENTRATION ([1]; pravastatin monotherapy 10 mg/kg/day, Week 8, mean ± SEM): 26 ± 9 µmol/kg/day | % change in fecal bile acid concentration from Week 0 ([1]; pravastatin monotherapy 10 mg/kg/day, Week 9): (−24) % | FECAL BILE ACID CONCENTRATION ([1]; pravastatin monotherapy 10 mg/kg/day, Week 9, mean ± SEM): 28 ± 5 µmol/kg/day | % change in fecal bile acid concentration from Week 0 ([1]; pravastatin monotherapy 10 mg/kg/day, Week 10): (−24) % | FECAL BILE ACID CONCENTRATION ([1]; pravastatin monotherapy 10 mg/kg/day, Week 10, mean ± SEM): 28 ± 6 µmol/kg/day | SERUM TOTAL CHOLESTEROL [2]: 134 ± 13^2 mg/dL
